Measured values reported in a compilation of properties of binary mixtures (doi:10.1021/je800965t).

Test: xn = mol fraction of the nth substance listed
Conditions: 101 kPa

O + CCCn1cc[n+](C)c1C.F[B-](F)(F)F
x1 = 1
Conditions | viscosity [mPa·s]
298.15 K | 0.89
303.15 K | 0.8
313.15 K | 0.65
318.15 K | 0.6
323.15 K | 0.55
333.15 K | 0.47
343.15 K | 0.4

CCCn1cc[n+](C)c1C.F[B-](F)(F)F + O
viscosity [mPa·s]
Conditions | x2 = 0 | x2 = 0.0939 | x2 = 0.1932 | x2 = 0.2833 | x2 = 0.3944 | x2 = 0.4987 | x2 = 0.5995 | x2 = 0.6985 | x2 = 0.8009 | x2 = 0.8988
298.15 K | 377 | 225 | – | 85.3 | 50.6 | 31.29 | 19.71 | 12.03 | 6.69 | 3.23
303.15 K | 272 | 168 | – | 66.8 | – | – | 16.21 | 10.04 | 5.67 | 2.78
308.15 K | 202 | 127.9 | 81.1 | – | – | 21.07 | – | 8.53 | 4.9 | 2.42
313.15 K | 152 | 99.3 | 64.5 | 43.2 | 27.18 | 17.63 | 11.52 | 7.31 | 4.23 | 2.14
318.15 K | 117.4 | – | – | 35.71 | 22.79 | 14.97 | 9.88 | 6.34 | 3.71 | 1.89
323.15 K | 92.3 | 63.3 | 42.8 | 29.65 | 19.32 | 12.87 | 8.58 | 5.55 | 3.29 | 1.69
333.15 K | 60.4 | – | – | 21.37 | 14.38 | 9.78 | – | – | 2.62 | 1.39
343.15 K | 40.7 | – | 21.84 | 16.02 | 11.04 | 7.66 | 5.3 | 3.53 | 2.15 | 1.16
